The source of these data is patent publication US6956047B1, “Corticotropin releasing factor antagonists” (Pfizer Inc., priority 1995, dated 2005).

Counter-ions that a name gives are not always drawn.

On to `CCC(CC)Oc1cc(C)nc(Nc2c(C)cc(C)cc2C)c1CN(C)C.Cl`, for which the melting point was in the range of 85 to 88 °C.

The compound `CCCN(CC)c1cc(C)nc(Oc2c(C)cc(C)cc2C)c1C` (as salt: HCl) [Example 72, [3,6-Dimethyl-2-(2,4,6-trimethyl-phenoxy)-pyridin-4-yl]-ethyl-propyl-amine] registered a melting point of 167 to 169 °C. As for `CCN(CC)c1cc(C)nc(Oc2c(C)cc(C)cc2C)c1C` (as salt: HCl) [Example 73, [3,6-dimethyl-2-(2,4,6-trimethyl-phenoxy)-pyridin-4-yl]-diethyl-amine], the figure is 180 to 181 °C.

In turn, `CCN(C)c1cc(C)nc(Oc2c(C)cc(C)cc2C)c1C` (as salt: HCl) [Example 74, [3,6-Dimethyl-2-(2,4,6-trimethyl-phenoxy)-pyridin-4-yl]-ethyl-methyl-amine] had a melting point of 173 to 174 °C. Take `CCCCN(CC)c1cc(C)nc(Oc2c(C)cc(Cl)cc2C)c1C` (as salt: HCl) [Example 76, Butyl-[2-(4-chloro-2,6-dimethyl-phenoxy)-3,6-dimethyl-pyridin-4-yl]-ethyl-amine]: the melting point was 177 to 178 °C. With `CCCN(CC)c1cc(C)nc(Oc2c(C)cc(Cl)cc2C)c1C` (as salt: HCl) [Example 77, [2-(4-chloro-2,6-dimethyl-phenoxy)-3,6-dimethyl-pyridin-4-yl]-ethyl-propyl-amine], the melting point fell in the range of 74 to 76 °C. With `CCN(CC)c1cc(C)nc(Oc2c(C)cc(Cl)cc2C)c1C` (as salt: HCl) [Example 78, [2-(4-chloro-2,6-dimethyl-phenoxy)-3,6-dimethyl-pyridin-4-yl]-diethyl-amine], the melting point lay within 184 to 185 °C. As for `CCC(CC)Oc1cc(C)nc(Nc2c(C)cc(C)cc2C)c1C(=O)N(C)C` (as salt: HCl) [Example 193, 4-(1-Ethyl-propoxy)-6,N,N-trimethyl-2-(2,4,6-trimethyl-phenylamino)-nicotinamide], the figure is 197 to 200 °C; as for `CCC(CC)Oc1nc(C)nc(Oc2c(C)cc(C)cc2C)c1C#N` [Example 35, 4-(1-Ethyl-propoxy)-2-methyl-6-(2,4,6-trimethyl-phenoxy)-pyrimidine-5-carbonitrile], 128 to 130 °C; as for `CCC(CC)Oc1cc(C)nc(Oc2c(C)cc(COC)cc2C)c1C` [Example 67, 4-(1-Ethyl-propoxy)-2-(4-methoxymethyl-2,6-dimethyl-phenoxy)-3,6-dimethyl-pyridine], 58 to 60 °C.

As for `CCC(CC)Nc1cc(C)nc(Sc2c(C)cc(C)cc2C)c1C` [Example 69, [3,6-Dimethyl-2-(2,4,6-trimethyl-phenylsulfanyl)-pyridin-4-yl]-(1-ethyl-propyl)-amine], the melting point was in the range of 108 to 110 °C. In the case of `CCNc1cc(C)nc(Sc2c(C)cc(C)cc2C)c1C` [Example 71, [3,6-dimethyl-2-(2,4,6-trimethyl-phenylsulfanyl)-pyridin-4-yl]-ethyl-amine], the melting point was 114 to 116 °C. `CCC(CC)Nc1cc(C)nc(Oc2c(C)cc(Cl)cc2C)c1N` [Example 97, 2-(4-Chloro-2,6-dimethyl-phenoxy)-N4-(1-ethyl-propyl)-6-methyl-pyridine-3,4-diamine] had a melting point of 72 to 74 °C.

`CCC(CC)Nc1cc(C)nc(Oc2c(C)cc(C)cc2C)c1NC(C)=O` [Example 98, N-[4-(1-Ethyl-propylamino)-6-methyl-2-(2,4,6-trimethyl-phenoxy)-pyridin-3-yl]-acetamide] returned a melting point of 154 to 156 °C. On to `CCC(COC)Nc1cc(C)nc(Oc2c(C=O)cccc2OC)c1[N+](=O)[O-]` (stereo not drawn) [Example 114, 3-Methoxy-2-[4-(1-methoxymethyl-propylamino)-6-methyl-3-nitro-pyridin-2-yloxy]-benzaldehyde], for which the melting point lay in the range of 126.5 to 130.5 °C. Next, `CCC(COC)Nc1cc(C)nc(Oc2c(OC)cc(OC)cc2OC)c1[N+](=O)[O-]` (stereo not drawn) [Example 114, (1-Methoxymethyl-propyl)-[6-methyl-3-nitro-2-(2,4,6-trimethoxy-phenoxy)-pyridin-4-yl]-amine]: 126.8 to 129.5 °C.

In turn, `CCC(Nc1cc(C)nc(Oc2c(C)cc(Cl)cc2C)c1CO)C(C)O` (stereo not drawn) [Example 138, 3-[2-(4-Chloro-2,6-dimethyl-phenoxy)-3-hydroxymethyl-6-methyl-pyridin-4-ylamino]-pentan-2-ol] yielded a melting point of 180 to 182 °C. Consider `CCC(O)C(CC)Nc1cc(C)nc(Oc2c(C)cc(Cl)cc2C)c1CO` (stereo not drawn) [Example 139, 4-[2-(4-Chloro-2,6-dimethyl-phenoxy)-3-hydroxymethyl-6-methyl-pyridin-4-ylamino]-hexan-3-ol], for which the melting point was 145 to 148 °C. Next, `C#CC(CC)Nc1cc(C)nc(Oc2c(C)cc(C)cc2C)c1C(=O)O` (stereo not drawn) [Example 140, 4-(1-Ethyl-prop-2-ynylamino)-6-methyl-2-(2,4,6-trimethyl-phenoxy)-nicotinic acid]: 131 to 133 °C; `CCC(CC)Oc1cc(C)nc(Oc2c(C)cc(C)cc2C)c1[N+](=O)[O-]` [Example 173, 4-(1-Ethyl-propoxy)-6-methyl-3-nitro-2-(2,4,6-trimethyl-phenoxy)-pyridine]: 106 to 109 °C. In turn, `CCC(CC)Oc1cc(C)nc(Nc2c(C)cc(C)cc2C)c1C(=O)n1ccnc1` [Example 183, [4-(1-Ethyl-propoxy)-6-methyl-2-(2,4,6-trimethyl-phenylamino)-pyridin-3-yl]-imidazol-1-yl-methanone] showed a melting point of 120 to 122 °C. Compound `CCC(CC)Oc1cc(C)nc(Nc2c(C)cc(C)cc2C)c1CC(C(=O)OC)C(=O)OC` [Example 185, 2-[4-(1-Ethyl-propoxy)-6-methyl-2-(2,4,6-trimethyl-phenylamino)-pyridin-3-ylmethyl]-malonic acid dimethyl ester] gave a melting point of 96 to 98 °C. As for `CCC(CC)Oc1cc(C)nc(Nc2c(C)cc(C)cc2C)c1CNC(=O)CCl` [Example 188, 2-Chloro-N-[4-(1-ethyl-propoxy)-6-methyl-2-(2,4,6-trimethyl-phenylamino)-pyridin-3-ylmethyl]-acetamide], the figure is 142 to 144 °C; as for `CCOC(=S)SCc1c(OC(CC)CC)cc(C)nc1Nc1c(C)cc(C)cc1C` [Example 190, Dithiocarbonic acid O-ethyl ester S-[4-(1-ethyl-propoxy)-6-methyl-2-(2,4,6-trimethyl-phenylamino)-pyridin-3-ylmethyl] ester], 55 to 57 °C; as for `CCC(CC)Oc1cc(C)nc(Nc2c(C)cc(C)cc2C)c1` [Example 203, [4-(1-Ethyl-propoxy)-6-methyl-pyridin-2-yl]-(2,4,6-trimethyl-phenyl)-amine], 98 to 100 °C.

In turn, `Cc1cc(C)c(Oc2nc(C)cc(C(O)C(F)(F)F)c2C)c(C)c1` (stereo not drawn) [Example 212, 1-[3,6-Dimethyl-2-(2,4,6-trimethyl-phenoxy)-pyridin-4-yl]-2,2,2-trifluoro-ethanol] showed a melting point of 134 to 139 °C. `CCC(CC)Nc1cc(C)nc(Nc2c(C)cc(C)cc2C)c1C(N)=O` [Example 232, 4-(1-Ethyl-propylamino)-6-methyl-2-(2,4,6-trimethyl-phenylamino)-nicotinamide]: the melting point lay in the range of 204 to 206 °C. Consider `CCC(CC)Oc1nc(C)nc(Nc2c(C)cc(C)cc2C)c1C(N)=O` [Example 233, 4-(1-Ethyl-propoxy)-2-methyl-6-(2,4,6-trimethyl-phenylamino)-pyrimidine-5-carboxylic acid amide], for which the melting point is 174 to 176 °C. As to `CCC(CC)Oc1cc(C)nc(Nc2c(C)cc(C)cc2C)c1NC(=O)CCl` [Example 237, 2-Chloro-N-[4-(1-ethyl-propoxy)-6-methyl-2-(2,4,6-trimethyl-phenylamino)-pyridin-3-yl]-acetamide], the melting point is 79 to 82 °C. `CCC(CC)Nc1cc(C)nc(Oc2c(C)cc(C)cc2C)c1CN` [Example 248, [3-Aminomethyl-6-methyl-2-(2,4,6-trimethyl-phenoxy)-pyridin-4-yl]-(1-ethyl-propyl)-amine] showed a melting point of 117 to 119 °C.

On to `CCC(CC)Oc1nc(C)nc(Nc2c(C)cc(C)cc2C)c1C(=O)O` [Example 273, 4-(1-Ethyl-propoxy)-2-methyl-6-(2,4,6-trimethyl-phenylamino)-pyrimidine-5-carboxylic acid], for which the melting point is 118 to 120 °C. Compound `CCC(CC)Oc1nc(C)nc(Nc2c(C)cc(C)cc2C)c1CO` [Example 274, [4-(1-Ethyl-propoxy)-2-methyl-6-(2,4,6-trimethyl-phenylamino)-pyrimidin-5-yl]-methanol] displayed a melting point of 121 to 123 °C. As for `CCC(CC)Oc1cc(C)nc2c1[nH]c(=O)n2-c1c(C)cc(C)cc1C` [Example 279, 7-(1-Ethyl-propoxy)-5-methyl-3-(2,4,6-trimethyl-phenyl)-1,3-dihydro-imidazo[4,5-b]pyridin-2-one], the figure is 184 to 186 °C; as for `CCC(CC)Oc1cc(C)nc2c1n(C)c(=O)n2-c1c(C)cc(C)cc1C` [Example 280, 7-(1-Ethyl-propoxy)-1,5-dimethyl-3-(2,4,6-trimethyl-phenyl)-1,3-dihydro-imidazo[4,5-b]pyridin-2-one], 151 to 153 °C. As to `CCC(CC)Nc1cc(C)nc2c1nc(C)n2-c1c(C)cc(C)cc1C` [Example 282, [2,5-Dimethyl-3-(2,4,6-trimethyl-phenyl)-3H-imidazo[4,5-b]pyridin-7-yl]-(1-ethyl-propyl)-amine], the melting point was in the range of 101 to 103 °C. Next, `CCC(CC)Nc1cc(C)nc2c1nc(N)n2-c1c(C)cc(C)cc1C` [Example 283, N7-(1-Ethyl-propyl)-5-methyl-3-(2,4,6-trimethyl-phenyl)-3H-imidazo[4,5-b]pyridine-2,7-diamine]: 158 to 160 °C.
